From patent US12708616B2, “Compositions and methods of treating age-related retinal dysfunction” (THE REGENTS OF THE UNIVERSITY OF CALIFORNIA, priority 2020, dated 2026)
“Also recorded” adds a separate entry of the source.

Experiments:
H3K27ac = assay: Quantitative Western blot of H3K27ac (euchromatin) in retina of photobleached dKO mice; type: in vivo, mouse; conditions: 60 mg/kg bw intraperitoneal 30 min prior to light exposure, 1 d post-bleach
Text: (§1) Male and female Abca4^−/−Rdh8^−/− mice at 6 to 8 weeks of age were used for the current study. These mice were maintained on a pigmented C57BL/6 background, and age-matched C57BL/6 mice from The Jackson Laboratory were used as wild-type controls. All mice were housed and maintained in a 12-hour light (≤150 lux)/12-hour dark cyclic environment in the University Laboratory Animal Resources center at the University of California, Irvine (UCI) School of Medicine. Bright light-induced retinal damage was generated by exposing photosensitive Abca4^−/−Rdh8^−/− mice to white light delivered at 10,000 lux (150-W spiral lamp, Commercial Electric, Cleveland, OH) for 30 min. Mice were dark-adapted 24 h prior to photobleaching, and pupils were dilated with 1% ophthalmic tropicamide 30 min prior to light exposure. […] All animal handling procedures and experimental protocols were approved by the Institutional Animal Care and Use Committee at UCI and conformed to recommendations of both the American Veterinary Medical Association (AVMA) Panel on Euthanasia and the Association for Research in Vision and Ophthalmology.
(§2) Fresh retina and RPE were harvested from study mice as described previously. […] The blots were imaged, and IR signals were quantified using a LI-COR Odyssey Fc imaging system.

[1] = system: Abca4−/−Rdh8−/− (dKO) mice; assay: SLO and OCT imaging of bright light-induced retinal damage; type: in vivo, mouse; conditions: 60 mg/kg bw intraperitoneal, 7 d after photobleaching
Text: Male and female Abca4^−/−Rdh8^−/− mice at 6 to 8 weeks of age were used for the current study. These mice were maintained on a pigmented C57BL/6 background, and age-matched C57BL/6 mice from The Jackson Laboratory were used as wild-type controls. All mice were housed and maintained in a 12-hour light (≤150 lux)/12-hour dark cyclic environment in the University Laboratory Animal Resources center at the University of California, Irvine (UCI) School of Medicine. Bright light-induced retinal damage was generated by exposing photosensitive Abca4^−/−Rdh8^−/− mice to white light delivered at 10,000 lux (150-W spiral lamp, Commercial Electric, Cleveland, OH) for 30 min. Mice were dark-adapted 24 h prior to photobleaching, and pupils were dilated with 1% ophthalmic tropicamide 30 min prior to light exposure. […]
Mice were anesthetized by intraperitoneal injection of ketamine (20 mg/mL) with xylazine (1.75 mg/mL) at a dose of 5 μL/g bw, and pupils were dilated with 1% tropicamide prior to imaging. […] For quantitative measurements of photoreceptor viability, ONL thickness was measured in the InVivoVue software at a distance of 0.45 mm from the optic nerve head in the temporal retina, where the most severe damage is found in bright light-exposed Abca4^−/−Rdh8^−/− mice. […]

HDAC4, 5, 6, 7, and 8 = conditions: cited from earlier work
H3K9me3 [2] = assay: Quantitative Western blot of H3K9me3 (heterochromatin) in RPE/choroid of bleached dKO mice; type: in vivo, mouse; conditions: 60 mg/kg bw intraperitoneal 30 min prior to light exposure, 1 d post-bleach
Text: as §1, §2

H3K9me3 [3] = assay: Immunohistochemistry of H3K9me3 in retinal cross-sections of photobleached dKO mice; type: in vivo, mouse; conditions: 60 mg/kg bw intraperitoneal, 1 d after photobleaching, vs DMSO vehicle
Text: as §1
Mice were euthanized in a CO2 chamber prior to enucleation. […] Fluorescence microscopy images were obtained on a Keyence BZ-X810 fluorescent microscope.

HDAC = conditions: with exception for HDAC6; read-out: IC50 pan-HDAC; cited from earlier work
HDACs 6 and 7 = conditions: cited from earlier work
HDACs 2, 4, 10, and 11 = conditions: cited from earlier work
HDAC11 = biological target: T1, HDAC11 (Homo sapiens, UniProt Q96DB2); conditions: mammalian HDAC11; cited from earlier work
T1 sequence (Q96DB2 1-347): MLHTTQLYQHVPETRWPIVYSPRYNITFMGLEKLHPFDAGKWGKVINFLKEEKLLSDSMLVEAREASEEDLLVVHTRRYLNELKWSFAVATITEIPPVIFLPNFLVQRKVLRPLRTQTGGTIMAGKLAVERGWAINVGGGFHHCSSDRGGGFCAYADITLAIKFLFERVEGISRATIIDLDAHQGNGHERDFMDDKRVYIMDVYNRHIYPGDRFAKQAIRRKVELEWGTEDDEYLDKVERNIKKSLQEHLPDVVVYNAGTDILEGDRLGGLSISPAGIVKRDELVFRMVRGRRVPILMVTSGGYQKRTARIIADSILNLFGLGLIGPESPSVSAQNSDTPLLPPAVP

[4] = system: HDAC11 substrate, serine hydroxymethyl transferase 2; conditions: cited from earlier work
other HDACs = conditions: cited from earlier work

Question: What does the source list for `Nc1ccccc1NC(=O)c1ccc(CNc2nccc(-c3cccnc3)n2)cc1` [Mocetinostat]?
Answer: Euchromatin abundance (H3K27ac) in retina (H3K27ac): rescues the stress-induced reduction in euchromatin abundance; Stress-induced retinal pathology by SLO and OCT (ONL thickness) [1]: sufficient to ameliorate stress-induced retinal pathology; also recorded: ameliorated; Activity to HDAC4, 5, 6, 7, and 8 (HDAC4, 5, 6, 7, and 8): no activity

Question: Which “Stress-induced retinal pathology by SLO and OCT (ONL thickness)” value [1] does the source give for `COc1cc(OC)c(-c2cn3ccc(N4CC[C@H](NCc5ccncc5)C4)cc3n2)cc1Cl` [OTS186935, (S)-1-(2-(5-chloro-2,4-dimethoxyphenyl)imidazo[1,2-a]pyridin-7-yl)-N-(pyridin-4-ylmethyl)pyrrolidin-3-amine] here?
Answer: sufficient to ameliorate stress-induced retinal pathology; also recorded: ameliorated

Question: And the “Heterochromatin abundance (H3K9me3) in RPE/choroid” value (H3K9me3 [2])?
Answer: attenuates the stress-induced increase in heterochromatin abundance

Question: And the “H3K9me3 signal in retinal cross-sections (immunohistochemistry)” value (H3K9me3 [3])?
Answer: attenuated

Question: For `CCCCc1nc2cc(/C=C/C(=O)NO)ccc2n1CCN(CC)CC` [Pracinostat], which IC50 (HDAC) is on record?
Answer: 40 to 140 nM

Question: With `Cn1cc(CNCC2CCN(c3ncc(C(=O)NO)cn3)CC2)c2ccccc21` [Quisinostat] as the compound, how does the “Potency to HDACs 6 and 7” value (HDACs 6 and 7) read?
Answer: lowest potency

Question: And the “Potency to HDACs 2, 4, 10, and 11” value (HDACs 2, 4, 10, and 11)?
Answer: modest potent

Question: Which results are given for `CCCCCCCCCCCCCCCCNNC(=O)c1cccs1` [SIS17]?
Answer: IC50 (HDAC11): 830 nM; Demyristoylation of serine hydroxymethyl transferase 2 [4]: inhibits the demyristoylation; Inhibition of other HDACs (other HDACs): without inhibiting other HDACs
